Assay results from ChEMBL document CHEMBL4417631, “Oral peptide inhibitors of interleukin-23 receptor and their use to treat inflammatory bowel diseases” (2017).
Where a SMILES comes first, the peptide text is derived from it. [ ]: non-standard residue; d: D form. hLeu = CC(C)CC[C@H](N)C(=O)O

Target: T1, Interleukin-23 receptor (Homo sapiens, UniProt Q5VWK5)
T1 sequence (Q5VWK5 whole entry): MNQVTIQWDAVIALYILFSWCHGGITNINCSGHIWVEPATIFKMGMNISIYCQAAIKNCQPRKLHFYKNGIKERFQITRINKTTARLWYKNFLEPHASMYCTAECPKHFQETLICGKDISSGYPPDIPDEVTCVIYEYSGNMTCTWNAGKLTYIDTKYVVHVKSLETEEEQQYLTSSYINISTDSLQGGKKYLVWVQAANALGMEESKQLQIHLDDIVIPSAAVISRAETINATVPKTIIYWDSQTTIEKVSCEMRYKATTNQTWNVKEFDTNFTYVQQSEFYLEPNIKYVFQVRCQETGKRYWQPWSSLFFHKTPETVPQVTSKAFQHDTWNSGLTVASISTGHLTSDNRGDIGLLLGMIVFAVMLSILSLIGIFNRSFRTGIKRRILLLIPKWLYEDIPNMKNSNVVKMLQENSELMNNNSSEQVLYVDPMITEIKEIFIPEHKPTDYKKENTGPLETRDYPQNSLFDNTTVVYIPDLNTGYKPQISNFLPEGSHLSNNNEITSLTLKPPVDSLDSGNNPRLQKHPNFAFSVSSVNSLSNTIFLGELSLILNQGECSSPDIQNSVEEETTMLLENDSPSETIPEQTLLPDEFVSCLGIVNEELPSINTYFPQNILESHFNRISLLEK
Assay: Inhibition of interleukin-23 binding to human interleukin-23 receptor incubated for 2 hrs by competitive binding ELISA

IC50 [nM] | SMILES
> 1000 | CC(C)[C@H](NC(=O)C[C@H](Cc1c[nH]c2ccccc12)NC(=O)[C@H](CC(=O)O)NC(=O)[C@H](C)NC(=O)[C@@H](N)CS)C(=O)N[C@@H](CS)C(=O)N[C@@H](Cc1ccc(O)cc1)C(=O)N[C@@H](Cc1c[nH]c2ccccc12)C(=O)N[C@@H](Cc1cnc[nH]1)C(=O)N[C@H](C(=O)N[C@@H](Cc1ccccc1)C(=O)NCC(N)=O)[C@@H](C)O
> 1000 | CC(C)[C@H](NC(=O)[C@H](Cc1c[nH]c2ccccc12)NC(=O)[C@@H](NC(=O)[C@H](Cc1cnc[nH]1)NC(=O)[C@@H](N)CS)[C@@H](C)O)C(=O)N[C@@H](CS)C(=O)N[C@@H](Cc1ccc(O)cc1)C(=O)N[C@@H](Cc1c[nH]c2ccccc12)C(=O)N[C@@H](Cc1cnc[nH]1)C(=O)N[C@@H](CCC(=O)O)C(=O)N[C@@H](Cc1ccccc1)C(=O)N[C@@H](CO)C(N)=O (H-CHTWVCYWHEFS-NH2)
500 to 1000 | CC(C)[C@H](NC(=O)[C@H](Cc1c[nH]c2ccccc12)NC(=O)[C@H](CC(=O)O)NC(=O)[C@H](C)NC(=O)[C@@H](N)CS)C(=O)N[C@@H](CS)C(=O)N[C@@H](Cc1ccc(O)cc1)C(=O)N[C@@H](Cc1ccc2ccccc2c1)C(=O)N[C@@H](Cc1cnc[nH]1)C(=O)N[C@H](C(=O)N[C@@H](Cc1ccccc1)C(=O)NCC(N)=O)[C@@H](C)O
> 10000 | CC(=O)N[C@@H](CS)C(=O)N[C@@H](C)C(=O)N[C@@H](CC(=O)O)C(=O)N[C@@H](Cc1c[nH]c2ccccc12)C(=O)N[C@H](C(=O)N[C@@H](CS)C(=O)N[C@@H](Cc1ccc(O)cc1)C(=O)N[C@@H](Cc1c[nH]c2ccccc12)C(=O)N[C@@H](Cc1cnc[nH]1)C(=O)N[C@H](C(=O)N[C@@H](Cc1ccccc1)C(=O)N[C@@H](CC(=O)O)C(=O)N[C@@H](CCCCNC(=O)COCC(=O)NCCCC[C@H](NC(=O)[C@H](CC(=O)O)NC(=O)[C@H](Cc1ccccc1)NC(=O)[C@@H](NC(=O)[C@H](Cc1cnc[nH]1)NC(=O)[C@H](Cc1c[nH]c2ccccc12)NC(=O)[C@H](Cc1ccc(O)cc1)NC(=O)[C@H](CS)NC(=O)[C@@H](NC(=O)[C@H](Cc1c[nH]c2ccccc12)NC(=O)[C@H](CC(=O)O)NC(=O)[C@H](C)NC(=O)[C@H](CS)NC(C)=O)C(C)C)[C@@H](C)O)C(=O)O)C(=O)O)[C@@H](C)O)C(C)C
6000 | CC(=O)N[C@@H](CS)C(=O)N[C@@H](CCC(N)=O)C(=O)N[C@H](C(=O)N[C@@H](Cc1c[nH]c2ccccc12)C(=O)N[C@@H](CCC(N)=O)C(=O)N[C@@H](CS)C(=O)N[C@@H](Cc1ccc(O)cc1)C(=O)N[C@@](C)(Cc1c[nH]c2ccccc12)C(=O)N[C@@H](CCCNC(N)=O)C(=O)N[C@@H](CCC(C)C)C(=O)N[C@@H](CC(N)=O)C(=O)NCC(=O)NCCC(=O)N[C@H](CCCCN)C(N)=O)[C@@H](C)O
97 to 239 | CC(=O)N[C@@H](CS)C(=O)N[C@@H](CCC(N)=O)C(=O)N[C@H](C(=O)N[C@@H](Cc1c[nH]c2ccccc12)C(=O)N[C@@H](CCC(N)=O)C(=O)N[C@@H](CS)C(=O)N[C@@H](Cc1ccc(O)cc1)C(=O)N[C@@H](Cc1c[nH]c2ccccc12)C(=O)N[C@@H](CCC(C)C)C(=O)N[C@@H](CCC(=O)O)C(=O)N[C@@H](CC(N)=O)C(=O)NCC(=O)N1CCC[C@H]1C(N)=O)[C@@H](C)O
> 10000 | CC(=O)N[C@@H](CS)C(=O)N[C@@H](CCC(N)=O)C(=O)N[C@H](C(=O)N1CCC[C@H]1C(=O)N[C@@H](CCC(N)=O)C(=O)N[C@@H](CS)C(=O)N[C@@H](Cc1ccc(O)cc1)C(=O)N[C@@H](Cc1c[nH]c2ccccc12)C(=O)N[C@@H](CCC(C)C)C(=O)N[C@@H](CCC(=O)O)C(=O)N[C@@H](CC(N)=O)C(=O)NCC(N)=O)[C@@H](C)O (Ac-CQTPQCYW[hLeu]ENG-NH2)
> 1000 | CC(=O)N[C@@H](CS)C(=O)N[C@@H](C)C(=O)N[C@@H](CC(=O)O)C(=O)N[C@@H](Cc1c[nH]c2ccccc12)C(=O)N[C@H](C(=O)N[C@@H](CS)C(=O)N[C@@H](Cc1ccc(O)cc1)C(=O)N[C@@H](Cc1cccc2ccccc12)C(=O)N(C)[C@@H](Cc1cnc[nH]1)C(=O)N[C@H](C)C(=O)N[C@@H](Cc1ccccc1)C(=O)NC(C)(C)C(N)=O)C(C)C
> 30000 | CC(=O)N[C@@H](CS)C(=O)N[C@@H](C)C(=O)N[C@@H](CC(=O)O)C(=O)N[C@@H](Cc1c[nH]c2ccccc12)C(=O)N[C@H](C(=O)N[C@@H](CS)C(=O)N[C@@H](Cc1ccc(O)cc1)C(N)=O)C(C)C
6000 | CC(=O)N[C@@H](CS)C(=O)N[C@@H](CCC(N)=O)C(=O)N[C@H](C(=O)N[C@@H](Cc1c[nH]c2ccccc12)C(=O)N[C@@H](CCC(N)=O)C(=O)N[C@@H](CS)C(=O)N[C@@H](CC1CCCCC1)C(=O)N[C@@H](Cc1c[nH]c2ccccc12)C(=O)N[C@@H](CCC(C)C)C(=O)N[C@@H](CCC(=O)O)C(=O)N[C@@H](CC(N)=O)C(=O)NCC(N)=O)[C@@H](C)O
> 30000 | CC(=O)N[C@@H](CS)C(=O)N[C@@H](CCC(N)=O)C(=O)N[C@H](C(=O)N[C@@H](Cc1c[nH]c2ccccc12)C(=O)N[C@@H](CCC(N)=O)C(=O)N[C@@H](CS)C(=O)N[C@@H](Cc1ccc(O)cc1)C(=O)N[C@@H](CCc1ccccc1)CC(=O)N[C@@H](CCCNC(=N)N)C(=O)N[C@H](C(=O)N[C@@H](CC(N)=O)C(=O)NCC(=O)NCCOCC(=O)N[C@H](CCCCN)C(N)=O)C(C)C)[C@@H](C)O
> 3000 | CC(=O)N[C@H]1CCSC[C@@H](C(=O)N[C@@H](Cc2ccc(OCCN)cc2)C(=O)N[C@@H](Cc2ccc3ccccc3c2)C(=O)N[C@@](C)(CCCCN)C(=O)N[C@@H](CCC(=O)O)C(=O)N[C@@H](CC(N)=O)C(=O)NCC(N)=O)NC(=O)[C@H](CCC(N)=O)NC(=O)[C@@H]2Cc3ccccc3CN2C(=O)[C@H]([C@@H](C)O)NC(=O)[C@H](CCC(N)=O)NC1=O
> 1000 | CC(=O)NCCCC[C@H](NC(=O)[C@](C)(CCCCN)NC(=O)[C@H](Cc1ccc2ccccc2c1)NC(=O)[C@H](CCc1ccc(O)cc1)NC(=O)[C@@H]1CSCC[C@H](NC(C)=O)C(=O)N[C@@H](CCC(N)=O)C(=O)N[C@@H]([C@@H](C)O)C(=O)N[C@@H](Cc2c[nH]c3ccccc23)C(=O)N[C@@H](CCC(N)=O)C(=O)N1)C(=O)N[C@@H](CC(N)=O)C(=O)NCC(N)=O
> 30000 | CC(=O)N[C@@H](CS)C(=O)N[C@@H](C)C(=O)N[C@@H](CC(=O)O)C(=O)N[C@@H](Cc1c[nH]c2ccccc12)C(=O)N[C@H](C(=O)N[C@@H](CS)C(=O)N[C@@H](Cc1ccc(O)cc1)C(=O)N[C@@H](Cc1c[nH]c2ccccc12)C(N)=O)C(C)C
< 500 | CC(=O)N[C@@H](CS)C(=O)N[C@H](C(=O)N[C@H](C(=O)N[C@@H](Cc1c[nH]c2ccccc12)C(=O)N[C@@H](CCC(=O)O)C(=O)N[C@@H](CS)C(=O)N[C@@H](Cc1ccc(O)cc1)C(=O)N[C@@H](Cc1c[nH]c2ccccc12)C(=O)N[C@@H](Cc1cnc[nH]1)C(=O)N[C@@H](CCC(=O)O)C(=O)N[C@@H](Cc1ccc(O)cc1)C(=O)NCC(N)=O)[C@@H](C)O)[C@@H](C)O (Ac-CTTWECYWHEYG-NH2)
> 1000 | CC(=O)N[C@@H](CS)C(=O)N[C@@H](CCC(N)=O)C(=O)N[C@H](C(=O)N[C@@H](Cc1c[nH]c2ccccc12)C(=O)N[C@@H](CCC(N)=O)C(=O)N[C@@H](CS)C(=O)N[C@@H](Cc1ccc(O)cc1)C(=O)N[C@@H](Cc1c[nH]c2ccccc12)C(=O)N[C@@H](CCCNC(=N)N)C(=O)N(C)CC(=O)N[C@@H](CC(N)=O)C(=O)NCC(=O)NCCOCC(=O)N[C@H](CCCCN)C(N)=O)[C@@H](C)O
> 1000 | CC(C)[C@H](NC(=O)[C@H](Cc1c[nH]c2ccccc12)NC(=O)[C@H](CC(=O)O)NC(=O)CN(C)C(=O)[C@@H](N)CS)C(=O)N[C@@H](CS)C(=O)N[C@@H](Cc1ccc(O)cc1)C(=O)N[C@@H](Cc1cccc2ccccc12)C(=O)N[C@@H](Cc1cnc[nH]1)C(=O)N[C@H](C(=O)N[C@@H](Cc1ccccc1)C(=O)O)[C@@H](C)O
> 1000 | CC(C)[C@H](NC(=O)[C@H](Cc1c[nH]c2ccccc12)NC(=O)[C@H](CC(=O)O)NC(=O)[C@H](CS)NC(=O)[C@H](C)N)C(=O)N[C@@H](CS)C(=O)N[C@@H](Cc1ccc(O)cc1)C(=O)N[C@@H](Cc1c[nH]c2ccccc12)C(=O)N[C@@H](Cc1cnc[nH]1)C(=O)N[C@H](C(=O)N[C@@H](Cc1ccccc1)C(=O)NCC(N)=O)[C@@H](C)O
> 1000 | CC(C)[C@H](NC(=O)[C@H](Cc1ccc2ccccc2c1)NC(=O)[C@H](CC(=O)O)NC(=O)[C@H](C)NC(=O)[C@@H](N)CS)C(=O)N[C@@H](CS)C(=O)N[C@@H](Cc1ccc(O)cc1)C(=O)N[C@@H](Cc1c[nH]c2ccccc12)C(=O)N[C@@H](Cc1cnc[nH]1)C(=O)N[C@H](C(=O)N[C@@H](Cc1ccccc1)C(=O)NCC(N)=O)[C@@H](C)O
> 10000 | CC(=O)N[C@H](CCCCNC(=O)COCC(=O)NCCCC[C@@H](NC(C)=O)C(=O)N[C@@H](CO)C(=O)N[C@@H](CS)C(=O)N[C@@H](C)C(=O)N[C@@H](CC(=O)O)C(=O)N[C@@H](Cc1c[nH]c2ccccc12)C(=O)N[C@H](C(=O)N[C@@H](CS)C(=O)N[C@@H](Cc1ccc(O)cc1)C(=O)N[C@@H](Cc1c[nH]c2ccccc12)C(=O)N[C@@H](Cc1cnc[nH]1)C(=O)N[C@H](C(=O)N[C@@H](Cc1ccccc1)C(=O)NCC(=O)O)[C@@H](C)O)C(C)C)C(=O)N[C@@H](CO)C(=O)N[C@@H](CS)C(=O)N[C@@H](C)C(=O)N[C@@H](CC(=O)O)C(=O)N[C@@H](Cc1c[nH]c2ccccc12)C(=O)N[C@H](C(=O)N[C@@H](CS)C(=O)N[C@@H](Cc1ccc(O)cc1)C(=O)N[C@@H](Cc1c[nH]c2ccccc12)C(=O)N[C@@H](Cc1cnc[nH]1)C(=O)N[C@H](C(=O)N[C@@H](Cc1ccccc1)C(=O)NCC(=O)O)[C@@H](C)O)C(C)C
